# Laboratory results as given in patent US20240360126A1, “PYRAZOLO[3,4-B]PYRIDINE COMPOUNDS FOR THE TREATMENT OF AUTOIMMUNE DISEASE” (Hoffmann-La Roche Inc., priority 2021, published 2024).
# Target: T1, human TLR7 (Homo sapiens, UniProt Q9NYK1)
# T1 construct: host or cells: HEK293 (HEK-Blue hTLR7)
# T1 sequence (Q9NYK1 27-1049): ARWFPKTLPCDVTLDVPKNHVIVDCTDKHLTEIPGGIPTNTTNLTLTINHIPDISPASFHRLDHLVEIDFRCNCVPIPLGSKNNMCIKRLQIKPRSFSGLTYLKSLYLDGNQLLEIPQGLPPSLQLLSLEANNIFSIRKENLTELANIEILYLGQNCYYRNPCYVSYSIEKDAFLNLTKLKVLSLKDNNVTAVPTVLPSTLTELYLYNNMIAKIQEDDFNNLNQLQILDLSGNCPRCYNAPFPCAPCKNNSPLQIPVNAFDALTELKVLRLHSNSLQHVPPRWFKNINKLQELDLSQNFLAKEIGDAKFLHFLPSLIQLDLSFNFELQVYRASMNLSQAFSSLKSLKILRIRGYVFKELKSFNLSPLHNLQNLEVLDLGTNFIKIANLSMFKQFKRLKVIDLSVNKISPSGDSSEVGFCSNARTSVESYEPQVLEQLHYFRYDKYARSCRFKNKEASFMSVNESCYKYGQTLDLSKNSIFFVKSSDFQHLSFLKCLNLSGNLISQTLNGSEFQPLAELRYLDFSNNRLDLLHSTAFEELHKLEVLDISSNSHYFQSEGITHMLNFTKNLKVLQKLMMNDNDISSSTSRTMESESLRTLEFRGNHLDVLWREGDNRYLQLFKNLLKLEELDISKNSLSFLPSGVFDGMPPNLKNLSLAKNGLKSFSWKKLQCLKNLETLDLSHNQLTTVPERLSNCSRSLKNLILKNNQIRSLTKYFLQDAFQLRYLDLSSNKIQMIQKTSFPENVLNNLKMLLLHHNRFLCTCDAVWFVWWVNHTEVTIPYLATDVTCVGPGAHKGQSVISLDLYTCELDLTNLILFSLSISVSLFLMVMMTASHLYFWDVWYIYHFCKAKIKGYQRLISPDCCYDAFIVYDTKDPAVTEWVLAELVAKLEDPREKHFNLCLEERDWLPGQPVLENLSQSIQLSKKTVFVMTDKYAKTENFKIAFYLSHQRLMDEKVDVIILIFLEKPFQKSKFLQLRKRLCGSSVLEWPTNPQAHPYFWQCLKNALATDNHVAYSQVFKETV
# Assay: HEK293-Blue-hTLR-7 cells assay
# Format: cell-based
# Conditions: HEK293-Blue-hTLR7 cells, R848 stimulation, 20 hrs; read-out: HEK/hTLR7 IC50
# Source text: A stable HEK293-Blue-hTLR-7 cell line was purchased from InvivoGen (Cat. #: hkb-htlr7, San Diego, California, USA). These cells were originally designed for studying the stimulation of human TLR7 by monitoring the activation of NF-κB. A SEAP (secreted embryonic alkaline phosphatase) reporter gene was placed under the control of the IFN-β minimal promoter fused to five NF-κB and AP-1-binding sites. The SEAP was induced by activating NF-κB and AP-1 via stimulating HEK-Blue hTLR7 cells with TLR7 ligands. Therefore the reporter expression was declined by TLR7 antagonist under the stimulation of a ligand, such as R848 (Resiquimod), for incubation of 20 hrs. The cell culture supernatant SEAP reporter activity was determined using QUANTI-Blue™ kit (Cat. #: rep-qbl, Invivogen, San Diego, Ca, USA) at a wavelength of 640 nm, a detection medium that turns purple or blue in the presence of alkaline phosphatase.
# HEK293-Blue-hTLR7 cells were incubated at a density of 250,000-450,000 cells/mL in a volume of 170 μL in a 96-well plate in Dulbecco's Modified Eagle's medium (DMEM) containing 4.5 g/L glucose, 50 U/mL penicillin, […] streptomycin, […] Normocin, […] L-glutamine, 10% […] heat-inactivated fetal bovine serum with addition of 20 μL test compound in a serial dilution in the presence of final DMSO at 1% and 10 μL of 20 μM R848 in above DMEM, perform incubation under 37° C. in a CO2 incubator for 20 hrs. Then 20 μL of the supernatant from each well was incubated with 180 μL Quanti-blue substrate solution at 37° C. for 2 hrs and the absorbance was read at […] using a spectrophotometer. The signaling pathway that TLR7 activation leads to downstream NF-κB activation has been widely accepted, and therefore similar reporter assay was modified for evaluating TLR7 antagonist.
row,SMILES,IC50 [nM]
1,"Cc1cc(N2CCC(c3ccc(N4CCNCC4)cc3)CC2)c2cnn(C)c2n1 [Example 1, 1,6-dimethyl-4-[4-(4-piperazin-1-ylphenyl)-1-piperidyl]pyrazolo[3,4-b]pyridine]",53
2,"Cc1cc(N2CCC(c3ccc(N4CCNCC4)cn3)CC2)c2cnn(C)c2n1 [Example 2, 1,6-dimethyl-4-[4-(5-piperazin-1-yl-2-pyridyl)-1-piperidyl]pyrazolo[3,4-b]pyridine]",27
3,"Cc1cc(N2CCC(c3cnc(N4CCNCC4)cn3)CC2)c2cnn(C)c2n1 [Example 3, 1,6-dimethyl-4-[4-(5-piperazin-1-ylpyrazin-2-yl)-1-piperidyl]pyrazolo[3,4-b]pyridine]",20
4,"Cc1cc(N2CCC(c3ncc(N4CCNCC4)cn3)CC2)c2cnn(C)c2n1 [Example 4, 1,6-dimethyl-4-[4-(5-piperazin-1-ylpyrimidin-2-yl)-1-piperidyl]pyrazolo[3,4-b]pyridine]",31
5,"Cc1cc(N2CCNCC2)cnc1C1CCN(c2ccnc3c2cnn3C)CC1 [Example 5, 1-methyl-4-[4-(3-methyl-5-piperazin-1-yl-2-pyridyl)-1-piperidyl]pyrazolo[3,4-b]pyridine]",8
6,"Cc1cc(N2CCNCC2)ncc1C1CCN(c2ccnc3c2cnn3C)CC1 [Example 6, 1-methyl-4-[4-(4-methyl-6-piperazin-1-yl-3-pyridyl)-1-piperidyl]pyrazolo[3,4-b]pyridine]",7
7,"Cc1cc(N2CCC(c3ncc(N4CCNCC4)cc3C)CC2)c2cnn(C)c2n1 [Example 7, 1,6-dimethyl-4-[4-(3-methyl-5-piperazin-1-yl-2-pyridyl)-1-piperidyl]pyrazolo[3,4-b]pyridine]",11
8,"Cc1cc(N2CCC(c3cnc(N4CCNCC4)cc3C)CC2)c2cnn(C)c2n1 [Example 8, 1,6-dimethyl-4-[4-(4-methyl-6-piperazin-1-yl-3-pyridyl)-1-piperidyl]pyrazolo[3,4-b]pyridine]",52
9,"Cc1cc(N2CCC(c3cc(C)c(N4CCNCC4)cn3)CC2)c2cnn(C)c2n1 [Example 9, 1,6-dimethyl-4-[4-(4-methyl-5-piperazin-1-yl-2-pyridyl)-1-piperidyl]pyrazolo[3,4-b]pyridine]",39
10,"Cc1cc(N2CCC(c3ccc(N4CCNCC4)nc3C)CC2)c2cnn(C)c2n1 [Example 10, 1,6-dimethyl-4-[4-(2-methyl-6-piperazin-1-yl-3-pyridyl)-1-piperidyl]pyrazolo[3,4-b]pyridine]",39
11,"Cc1cc(N2CCC(c3cnc(N4CCNCC4)nc3C)CC2)c2cnn(C)c2n1 [Example 11, 1,6-dimethyl-4-[4-(4-methyl-2-piperazin-1-yl-pyrimidin-5-yl)-1-piperidyl]pyrazolo[3,4-b]pyridine]",37
12,"CCc1cc(N2CCNCC2)cnc1C1CCN(c2cc(C)nc3c2cnn3C)CC1 [Example 13, 4-[4-(3-ethyl-5-piperazin-1-yl-2-pyridyl)-1-piperidyl]-1,6-dimethyl-pyrazolo[3,4-b]pyridine]",26
13,"COc1cc(N2CCNCC2)cnc1C1CCN(c2cc(C)nc3c2cnn3C)CC1 [Example 14, 4-[4-(3-methoxy-5-piperazin-1-yl-2-pyridyl)-1-piperidyl]-1,6-dimethyl-pyrazolo[3,4-b]pyridine]",12
14,"COC[C@H]1CN(c2cnc(C3CCN(c4cc(C)nc5c4cnn5C)CC3)c(C)c2)CCN1 [Example 16, 4-[4-[5-[(3R)-3-(methoxymethyl)piperazin-1-yl]-3-methyl-2-pyridyl]-1-piperidyl]-1,6-dimethyl-pyrazolo[3,4-b]pyridine]",23

# Results, then the compound that gave them:
row,IC50 [nM],SMILES
1,50,"Cc1cc(N2CCC(c3cnc(N4CCNCC4)cc3C)[C@H](C)C2)c2cnn(C)c2n1 (single isomer, unassigned) [Example 20, 1,6-dimethyl-4-[cis-3-methyl-4-(4-methyl-6-piperazin-1-yl-3-pyridyl)-1-piperidyl]pyrazolo[3,4-b]pyridine]"
2,16,"Cc1cc(N2CCC(c3cnc(N4CCNCC4)cc3C)[C@H](C)C2)c2cnn(C)c2n1 (single isomer, unassigned) [Example 21, 1,6-dimethyl-4-[trans-3-methyl-4-(4-methyl-6-piperazin-1-yl-3-pyridyl)-1-piperidyl]pyrazolo[3,4-b]pyridine]"
3,49,"Cc1cc(N2CCC(c3ncc(N4CCNCC4)nc3C)[C@H](C)C2)c2cnn(C)c2n1 (single isomer, unassigned) [Example 22, 1,6-dimethyl-4-[cis-3-methyl-4-(3-methyl-5-piperazin-1-yl-pyrazin-2-yl)-1-piperidyl]pyrazolo[3,4-b]pyridine]"
4,11,"Cc1cc(N2CCC(c3ncc(N4CCNCC4)nc3C)[C@H](C)C2)c2cnn(C)c2n1 (single isomer, unassigned) [Example 23, 1,6-dimethyl-4-[trans-3-methyl-4-(3-methyl-5-piperazin-1-yl-pyrazin-2-yl)-1-piperidyl]pyrazolo[3,4-b]pyridine]"
5,82,"Cc1cc(N2CCC(c3ncc(N4CCNCC4)cc3C)[C@H](C)C2)c2cnn(C)c2n1 (single isomer, unassigned) [Example 24, 1,6-dimethyl-4-[cis-3-methyl-4-(3-methyl-5-piperazin-1-yl-2-pyridyl)-1-piperidyl]pyrazolo[3,4-b]pyridine]"
6,9,"Cc1cc(N2CCC(c3ncc(N4CCNCC4)cc3C)[C@H](C)C2)c2cnn(C)c2n1 (single isomer, unassigned) [Example 25, 1,6-dimethyl-4-[trans-3-methyl-4-(3-methyl-5-piperazin-1-yl-2-pyridyl)-1-piperidyl]pyrazolo[3,4-b]pyridine]"
7,24,"Cc1cc(N2CCC(c3ncc(N4CC[C@@H](N)[C@@H](F)C4)cc3C)CC2)c2cnn(C)c2n1 [Example 15, (3S,4R)-1-[6-[1-(1,6-dimethylpyrazolo[3,4-b]pyridin-4-yl)-4-piperidyl]-5-methyl-3-pyridyl]-3-fluoro-piperidin-4-amine]"
8,22,"CO[C@H]1CN(c2cnc(C3CCN(c4cc(C)nc5c4cnn5C)CC3)c(C)c2)CC[C@@H]1N [Example 17, (3S,4S)-1-[6-[1-(1,6-dimethylpyrazolo[3,4-b]pyridin-4-yl)-4-piperidyl]-5-methyl-3-pyridyl]-3-methoxy-piperidin-4-amine]"
9,12,"CO[C@@H]1CN(c2cnc([C@@H]3CCN(c4cc(C)nc5c4cnn5C)C[C@H]3C)c(C)c2)C[C@H]1N [Example 26, (3R,4R)-1-[6-[(3S,4R)-1-(1,6-dimethylpyrazolo[3,4-b]pyridin-4-yl)-3-methyl-4-piperidyl]-5-methyl-3-pyridyl]-4-methoxy-pyrrolidin-3-amine]"
10,9,"Cc1cc(N2CC[C@@H](c3ncc(N4CC5(CNCCO5)C4)cc3C)[C@H](C)C2)c2cnn(C)c2n1 [Example 27, 2-[6-[(3S,4R)-1-(1,6-dimethylpyrazolo[3,4-b]pyridin-4-yl)-3-methyl-4-piperidyl]-5-methyl-3-pyridyl]-5-oxa-2,8-diazaspiro[3.5]nonane]"
11,7,"Cc1cc(N2CC[C@@H](c3ncc(N4CCOC[C@@H](N)C4)cc3C)[C@H](C)C2)c2cnn(C)c2n1 [Example 28, (6S)-4-[6-[(3S,4R)-1-(1,6-dimethylpyrazolo[3,4-b]pyridin-4-yl)-3-methyl-4-piperidyl]-5-methyl-3-pyridyl]-1,4-oxazepan-6-amine]"
